From patent publication EP1798220A1, “Dibenzene derivatives as calcium channel blockers” (Neuropharma S.A., priority 2005, dated 2007)

Test system: VDCC
Assay: VDCC inhibition: calcium entry (Fluo-4 fluorescence) in SH-SY5Y cells after depolarization with 60 mM KCl
Assay type: cell-based, human
Details: 10 min exposure, 60 mM KCl depolarization
Procedure: This assay is aimed to determine the VDCC blocker activity of compounds; it is performed using SH-SY5Y neuroblastoma cells. SH-SY5Y cells were plated at 5x10^5 cells per well into Black / Clear Bottom 96-well culture plate, 48 hours before treatment. Cells were loaded with Fluo-4, 5 µM and pluronic acid, 0.1%, for 30 min at 37°C, 5%CO2, following a incubation of 15 min at RT in Krebs-HEPES solution. Immediately cells are exposed to the samples at different concentrations for 10 min. The compounds were tested at […], depending on potency. After the treatment, calcium entry is measured as fluorescence in a Fluostar Optima plate reader (BMG) in response to depolarization with 60 mM KCl. The excitation wavelength was 485 nm, and that of emission 520 nm.

Compound	% of calcium entry inhibition (compound at 10^-5 (M)) [%]	% of calcium entry inhibition (compound at 10^-6 (M))	% of calcium entry inhibition (compound at 10^-7 (M)) [%]
COCOc1cc(OC)ccc1C(=O)NCCCOc1c(Br)cc(CCNC(=O)c2ccc(OC)cc2OCOC)cc1Br [Compound 4]	87.3 ± 5	27.3 ± 5%	6 ± 0
COc1cc(O)c(C(=O)NCCCCCNC(=O)c2cc(Br)c(OC)cc2O)cc1Br [Compound 5]	21.8 ± 5		
COCOc1cc(OC)ccc1C(=O)NCCCCCCNC(=O)c1ccc(OC)cc1OCOC [Compound 3]	37.5 ± 7	6,6 ± 2%	
